# Source: ChEMBL document CHEMBL1145234, “A new synthetic analogue of thymidine, 7-(3-bromo-phenoxy)-thymidine, inhibits the proliferation of tumor cells” (Bioorg Med Chem Lett, 2005)
# Tested on: HeLa
# Assay: Inhibitory concentration against HeLa cell proliferation after 72 hours of incubation; NA means not active
# Format: functional, cell-based, Homo sapiens
# Conditions: not given; call rule not given here
row,IC50,SMILES
1,Not Active,O=c1ccn([C@H]2C[C@H](O)[C@@H](CO)O2)c(=O)[nH]1 [DEOXYURIDINE]

# Tested on: HeLa
# Assay: Inhibitory concentration against HeLa cell proliferation after 72 hours of incubation
# Format: functional, cell-based
# Conditions: Homo sapiens
row,IC50 [µM],SMILES
1,500,O=c1[nH]c(=O)n([C@H]2C[C@H](O)[C@@H](CO)O2)cc1CSc1cccc2ccccc12
2,50,O=c1[nH]c(=O)n([C@H]2C[C@H](O)[C@@H](CO)O2)cc1COc1cccc2ccccc12
3,50,O=c1[nH]c(=O)n([C@H]2C[C@H](O)[C@@H](CO)O2)cc1COc1ccc2ccccc2c1
4,250,O=c1[nH]c(=O)n([C@H]2C[C@H](O)[C@@H](CO)O2)cc1COc1ccc([N+](=O)[O-])cc1
5,15,O=c1[nH]c(=O)n([C@H]2C[C@H](O)[C@@H](CO)O2)cc1COc1cccc(Br)c1
6,25,O=c1[nH]c(=O)n([C@H]2C[C@H](O)[C@@H](CO)O2)cc1COc1ccc(Br)cc1
7,250,CCOc1ccc(OCc2cn([C@H]3C[C@H](O)[C@@H](CO)O3)c(=O)[nH]c2=O)cc1
8,250,Cc1ccc(OCc2cn([C@H]3C[C@H](O)[C@@H](CO)O3)c(=O)[nH]c2=O)cc1
9,200,COc1ccc(OCc2cn([C@H]3C[C@H](O)[C@@H](CO)O3)c(=O)[nH]c2=O)cc1
10,200,O=c1[nH]c(=O)n([C@H]2C[C@H](O)[C@@H](CO)O2)cc1COc1ccccc1

row,SMILES,IC50 [µM]
1,Cc1cn([C@H]2C[C@H](O)[C@@H](CO)O2)c(=O)[nH]c1=O [DOXRIBTIMINE],4000
